This passage reports IC50 results from patent publication US20140341857A1, “COMBINATION OF ONCOLYTIC AD[…] HISTONE DEACETYLASE INHIBITORS” (INSTITUT GUSTAVE ROUSSY, priority 2011, published 2014).

Assay in all cases: MTT assay, growth inhibition by HDACi after 48 h
Common to all, as to type: cell-based
A general note: Formazan colour is commonly taken as a measure of viable cells.

Experiment [1] concerns HT29. From the text: (§1) HT29, HCT116, SW480, SW620 colon adenocarcinomas cell lines, 911 human embryonic retinal cell lines and HEK293, a human embryonic kidney cell line expressing the adenoviral E1 protein were purchased from ATCC (American Tissue Culture Collection, Manassas, Va., USA).
HT29 and 911 were maintained in Dulbecco's modified Eagle's medium (DMEM; GIBCO) supplemented with 10% heat-inactivated fetal bovine serum (FBS; GIBCO).
(§2) First, three different histone deacetylase inhibitors: Trichostatin A (TSA), an hydroxamic acid; Valproic Acid (VPA), a short-chain aliphatic acid, and sodium butyrate (Nabu), a short-chain aliphatic acid, were evaluated for their ability to induce inhibition of the growth of these cells after 48 h of treatment using an MTT assay.

Experiment [2] concerns SW480. Conditions: SW480, 48 h of treatment. On the procedure:
as §1
(§3) The same medium was used for SW480 and SW620 supplemented with 1 mM Sodium Pyruvate (Invitrogen/GIBCO)
as §2

Experiment [3] concerns SW620. How it is done:
as §1, §3, §2

The subject of experiment [4] is HCT116. On the procedure:
as §1
HCT116 were cultured, in Mc Coy's 5A mediums with 10% heat-inactivated-FBS.
as §2

On to `CC(/C=C/C(=O)NO)=C\[C@@H](C)C(=O)c1ccc(N(C)C)cc1` [TSA, Trichostatin A], for which the IC50 (usually the point on the concentration scale where inhibition reaches its midpoint) in experiment [1] (HT29, 48 h of treatment) was found to be 0.15 µM; in experiment [2], 0.075 µM; in experiment [3] (SW620, 48 h of treatment), 0.037 µM; in experiment [4] (HCT116, 48 h of treatment) it was 0.035 µM.

With `CCCC(=O)[O-].[Na+]` [Nabu, sodium butyrate], the half-inhibitory concentration (IC50) in experiment [1] (Homo sapiens, HT-29, HT29, 48 h of treatment) turned out to be 4000 µM; in experiment [2] (Homo sapiens) it was 7000 µM; in experiment [3] (Homo sapiens, SW-620, SW620, 48 h of treatment), 3000 µM; in experiment [4] (Homo sapiens, HCT-116, HCT116, 48 h of treatment), 1000 µM.
